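48-hour exposure; five concentrations; linearly interpolated endpoints. GI50 = concentration required for 50% inhibition of growth. TGI is the concentration that stops growth completely.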
Tests used:
Test in all cases: inhibition of tumour cell growth, NCI panel, 48 h
A498 renal = tested on: A498 renal
CCRF-CEM leukemia = tested on: CCRF-CEM leukemia
HL-60(TB) leukemia = tested on: HL-60(TB) leukemia
LOX IMVI melanoma = tested on: LOX IMVI melanoma
OVCAR-4 ovarian = tested on: OVCAR-4 ovarian
RPMI-8226 leukemia = tested on: RPMI-8226 leukemia
SF-539 CNS = tested on: SF-539 CNS
SNB-19 CNS = tested on: SNB-19 CNS
UACC-62 melanoma = tested on: UACC-62 melanoma
EKVX NSCLC = tested on: EKVX NSCLC

Structure (SMILES)	GI50 (A498 renal) [µM]	TGI (A498 renal) [µM]	GI50 (CCRF-CEM leukemia) [µM]	TGI (CCRF-CEM leukemia) [µM]	GI50 (HL-60(TB) leukemia) [µM]	TGI (HL-60(TB) leukemia) [µM]	GI50 (LOX IMVI melanoma) [µM]	TGI (LOX IMVI melanoma) [µM]	GI50 (OVCAR-4 ovarian) [µM]	TGI (OVCAR-4 ovarian) [µM]	GI50 (RPMI-8226 leukemia) [µM]	TGI (RPMI-8226 leukemia) [µM]	GI50 (SF-539 CNS) [µM]	TGI (SF-539 CNS) [µM]	GI50 (SNB-19 CNS) [µM]	TGI (SNB-19 CNS) [µM]	GI50 (UACC-62 melanoma) [µM]	TGI (UACC-62 melanoma) [µM]	GI50 (EKVX NSCLC) [µM]	TGI (EKVX NSCLC) [µM]
Cc1ccc2c(N/N=C\c3ccco3)cc(C)nc2n1	11	23.9	2.23	6.37	1.99	4.07	3.76	14	2.99	9.19	2.48	7.06	2.01	3.74	8.15	24	1.81	3.69	–	–
NCCCn1c2c(c3cc4c(cc3c1=O)OCO4)C(=O)c1ccccc1-2	–	–	0.0279	0.379	1.48	2.93	0.14	> 100	0.199	0.721	–	0.208	–	–	4.19	> 100	2.06	5.5	0.842	2.55
CC1=C(/C=C/C2=CC(=C\C(=O)O)/CC(C3=C(C)CCCC3(C)C)C2)C(C)(C)CCC1 (stereo unspecified)	–	28.7	–	–	–	–	–	27.6	–	28.1	–	27	–	30.6	–	27.7	–	23.1	–	23.4
C/C=C1\C(=O)O[C@@H]2C1C[C@@H]1O[C@H]2[C@H](C)CCC/C(C)=C/CC[C@@]1(C)O (stereo partly specified)	–	–	3.53	11.8	5.55	> 100	5.8	21.5	–	–	3.27	> 100	2.52	6.06	19.4	40.6	7.16	20.7	2.22	5.53
COc1ccc(C(=O)C(Br)C(Br)C(=O)O)cc1 (stereo unspecified)	–	> 100	–	–	–	–	–	54	–	> 100	–	53.2	–	51.8	–	> 100	–	> 100	–	> 100
COc1cc2ccnc3c2c(c1OC)CC1CC(O)C(OC)CC31 (stereo unspecified)	–	–	–	> 100	–	> 100	–	> 100	–	> 100	–	> 100	–	55.4	–	> 100	–	> 100	–	88.6
O=C1NC(=O)C(=O)C(c2nc3ccccc3s2)C1=O	–	> 100	–	> 100	–	> 100	–	–	–	> 100	–	–	–	> 100	–	> 100	–	> 100	–	> 100
CCOC(=O)/C(C#N)=C\C=C1/C=CNC2=NCCN21	–	–	–	> 100	–	> 100	–	> 100	–	> 100	–	> 100	–	> 100	–	> 100	–	> 100	–	> 100
COc1cc([C@@H]2c3cc4c(cc3[C@H](OC(C)=O)[C@H]3COC(=O)[C@H]23)OCO4)cc(OC)c1OC	0.0139	0.065	0.0337	> 100	0.0223	0.0602	0.0293	> 100	0.0826	> 100	0.03	3.19	–	–	0.0436	> 100	0.0598	> 100	0.0568	> 100
NC(=O)c1cc(Cl)ccc1NC(=O)c1ccccc1-c1ccccc1	0.155	9.78	0.499	> 100	0.284	20.4	0.806	43	0.798	> 100	2.1	> 100	0.319	1.89	0.709	> 100	0.836	25.3	–	–
COc1ccc(-c2csc(NC(=O)N3CCN(c4cc5c(cc4F)c(=O)c(C(=O)O)cn5C4CC4)CC3)n2)cc1	2.59	15.6	1.43	13.1	–	–	–	–	–	–	–	–	1.8	> 100	3.29	> 100	–	–	3.11	> 100
O=C1C(Cl)=C(Nc2cccc(O)c2)C(=O)N1c1cccc(Cl)c1	–	–	10.7	31.8	–	–	22.4	51.1	50.6	> 100	12.8	34.3	–	–	71.5	> 100	27	> 100	> 100	> 100
COc1cc2c(=O)n(CCCn3ccnc3)c3c4cc5c(cc4ccc3c2cc1OC)OCO5	–	–	0.34	> 100	–	–	–	–	–	–	–	–	0.489	1.8	0.496	42.8	–	–	9.72	> 100
N#CC(C(=O)CCC(=O)Nc1ccc(Cl)cc1)c1ccccc1Cl (stereo unspecified)	–	> 100	–	> 100	–	> 100	–	–	–	> 100	–	> 100	–	> 100	–	> 100	–	> 100	–	> 100
CCCCCCCC(=O)OCC1OC(n2cc(F)c(=O)[nH]c2=O)C(NC(=O)OCc2ccccc2)C(OC(=O)CCCCCCC)C1O (stereo unspecified)	–	> 100	–	66.1	–	40.8	–	29.7	–	83	–	51.2	–	74.4	–	–	–	45.7	–	> 100
NNC(=O)CCC(=O)Nc1ccc(Cl)cc1Cl	–	> 100	–	> 100	–	> 100	–	> 100	–	> 100	–	> 100	–	> 100	–	> 100	–	> 100	–	–
S=P(c1ccccc1)(c1ccccc1)C1(C2(P(=S)(c3ccccc3)c3ccccc3)CC2)CC1	–	–	–	> 100	–	–	–	> 100	–	> 100	–	–	–	> 100	–	> 100	–	> 100	–	> 100
O=C(COc1ccc(Cl)cc1)N1N=C(c2ccc([N+](=O)[O-])o2)CC1(O)c1ccccc1 (stereo unspecified)	–	–	–	–	–	12	–	23.8	–	26.7	–	18.3	–	26.9	–	25.8	–	19.7	–	–
CN(C)Cc1cccc(CN(C)C)[c]1[Sn]([Br])([c]1ccccc1)[c]1ccccc1	21.7	47.6	5.45	> 100	1.76	3.93	6.25	20.3	–	–	2.29	6.86	15.2	30.3	18.7	48.4	–	–	15.2	54.1
